Values of other authors as cited in patent US20260157999A1, “[…] OF ALKALOID COMPOUNDS AND […] USES THEREOF” (Sensorium Therapeutics, Inc., priority 2021, published 2026).

Settings: described pharmacokinetics, rapid metabolism and excretion

For `COc1ccc(C23CCC(=O)CC2N(C)CC3)cc1OC` (stereo not shown) [Mesembrine, 3a-(3,4-dimethoxyphenyl)-octahydro-1-methyl-6H-indol-6-one], the half-life in plasma is listed as “less than 2 hours”.
